{"source": "paper PMC7732531", "about": "(Frontiers in Pharmacology, 2020)", "assay": "Pharmacokinetics in rats with ABT pretreatment (intestinal and hepatic availability)", "settings": "for concentration at 0.083 h / concentration at 8 h / concentration at 12 h / concentration at 24 h / bioavailability / AUC(0-t) / AUC(0-inf) / MRT last / Cmax / Tmax: 1 mg/kg; for concentration at 0.083 h / concentration at 8 h / concentration at 12 h / concentration at 24 h / concentration at 0.25 h / concentration at 0.5 h / concentration at 1 h / concentration at 2 h / concentration at 4 h / concentration at 6 h: Plasma concentration; for concentration at 0.083 h / concentration at 8 h / concentration at 12 h / concentration at 24 h / concentration at 0.25 h / concentration at 0.5 h / concentration at 1 h / concentration at 2 h / concentration at 4 h / concentration at 6 h / AUC(0-inf) / MRT last / E g (gut extraction) / E h (hepatic extraction) / F g / F h / F p.o. / reduction of systemic clearance: rats; for AUC(0-inf) / MRT last: p.o. YL-IPA08 (1 mg/kg); for MRT last: MRT(0–t)", "key": {"[1]": {"settings": "rat, plasma, iv, 0.5 mg/kg, with ABT 50 mg/kg i.v., 1 h before dosing"}, "[2]": {"settings": "rat, plasma, po, with ABT 50 mg/kg i.v., 1 h before dosing"}, "[3]": {"settings": "rat, plasma, po, with ABT 100 mg/kg p.o., 15 h before dosing"}}, "data": [{"compound": "CCN(Cc1ccccn1)C(=O)Cc1c(-c2ccc(Cl)c(Cl)c2)nc2cc(C)ccn12", "note": "[YL-IPA08]", "values": [{"measurement": "clearance", "setting": "[1]", "value": "17.8 ± 2.74", "unit": "mL/min/kg"}, {"measurement": "half-life", "setting": "[1]", "value": "87.6 ± 8.4", "unit": "min"}, {"measurement": "concentration at 0.083 h", "setting": "rat, plasma, oral, i.v. 50 mg/kg ABT, p.o. 1mg/kg YL-IPA08, 0.083 h", "value": "9.32 ± 7.18", "unit": "ng/mL"}, {"measurement": "concentration at 8 h", "setting": "rat, plasma, oral, i.v. 50 mg/kg ABT, p.o. 1mg/kg YL-IPA08, 8 h", "value": "4.51 ± 2.58", "unit": "ng/mL"}, {"measurement": "concentration at 12 h", "setting": "rat, plasma, oral, i.v. 50 mg/kg ABT, p.o. 1mg/kg YL-IPA08, 12 h", "value": "3.98 ± 4.24", "unit": "ng/mL"}, {"measurement": "concentration at 24 h", "setting": "rat, plasma, oral, i.v. 50 mg/kg ABT, p.o. 1mg/kg YL-IPA08, 24 h", "value": "1.28 ± 0.53", "unit": "ng/mL"}, {"measurement": "concentration at 0.083 h", "setting": "rat, plasma, oral, p.o. 100 mg/kg ABT, p.o. 1 mg/kg YL-IPA08, 0.083 h", "value": "546 ± 637", "unit": "ng/mL"}, {"measurement": "concentration at 8 h", "setting": "rat, plasma, oral, p.o. 100 mg/kg ABT, p.o. 1 mg/kg YL-IPA08, 8 h", "value": "34.2 ± 19.6", "unit": "ng/mL"}, {"measurement": "concentration at 12 h", "setting": "rat, plasma, oral, p.o. 100 mg/kg ABT, p.o. 1 mg/kg YL-IPA08, 12 h", "value": "17.4 ± 8.5", "unit": "ng/mL"}, {"measurement": "concentration at 24 h", "setting": "rat, plasma, oral, p.o. 100 mg/kg ABT, p.o. 1 mg/kg YL-IPA08, 24 h", "value": "1.39 ± 0.98", "unit": "ng/mL"}, {"measurement": "bioavailability", "setting": "rat, plasma, oral, with ABT 50 mg/kg i.v., 1 h before dosing", "value": 19.7, "unit": "%"}, {"measurement": "concentration at 0.25 h", "setting": "rat, plasma, oral, i.v. 50 mg/kg ABT, p.o. 1mg/kg YL-IPA08, 0.25 h", "value": "28.2 ± 25.2", "unit": "ng/mL"}, {"measurement": "concentration at 0.5 h", "setting": "rat, plasma, oral, i.v. 50 mg/kg ABT, p.o. 1mg/kg YL-IPA08, 0.5 h", "value": "30.3 ± 35.4", "unit": "ng/mL"}, {"measurement": "concentration at 1 h", "setting": "rat, plasma, oral, i.v. 50 mg/kg ABT, p.o. 1mg/kg YL-IPA08, 1 h", "value": "34.8 ± 50.4", "unit": "ng/mL"}, {"measurement": "concentration at 2 h", "setting": "rat, plasma, oral, i.v. 50 mg/kg ABT, p.o. 1mg/kg YL-IPA08, 2 h", "value": "30.5 ± 42", "unit": "ng/mL"}, {"measurement": "concentration at 4 h", "setting": "rat, plasma, oral, i.v. 50 mg/kg ABT, p.o. 1mg/kg YL-IPA08, 4 h", "value": "13.3 ± 17.1", "unit": "ng/mL"}, {"measurement": "concentration at 6 h", "setting": "rat, plasma, oral, i.v. 50 mg/kg ABT, p.o. 1mg/kg YL-IPA08, 6 h", "value": "6.4 ± 4.73", "unit": "ng/mL"}, {"measurement": "concentration at 0.25 h", "setting": "rat, plasma, oral, p.o. 100 mg/kg ABT, p.o. 1 mg/kg YL-IPA08, 0.25 h", "value": "403 ± 402", "unit": "ng/mL"}, {"measurement": "concentration at 0.5 h", "setting": "rat, plasma, oral, p.o. 100 mg/kg ABT, p.o. 1 mg/kg YL-IPA08, 0.5 h", "value": "370 ± 354", "unit": "ng/mL"}, {"measurement": "concentration at 1 h", "setting": "rat, plasma, oral, p.o. 100 mg/kg ABT, p.o. 1 mg/kg YL-IPA08, 1 h", "value": "334 ± 247", "unit": "ng/mL"}, {"measurement": "concentration at 2 h", "setting": "rat, plasma, oral, p.o. 100 mg/kg ABT, p.o. 1 mg/kg YL-IPA08, 2 h", "value": "246 ± 150", "unit": "ng/mL"}, {"measurement": "concentration at 4 h", "setting": "rat, plasma, oral, p.o. 100 mg/kg ABT, p.o. 1 mg/kg YL-IPA08, 4 h", "value": "125 ± 71.7", "unit": "ng/mL"}, {"measurement": "concentration at 6 h", "setting": "rat, plasma, oral, p.o. 100 mg/kg ABT, p.o. 1 mg/kg YL-IPA08, 6 h", "value": "47.7 ± 28.6", "unit": "ng/mL"}, {"measurement": "AUC(0-t)", "setting": "rat, plasma, po", "value": "185 ± 148", "unit": "ng·h/mL"}, {"measurement": "AUC(0-inf)", "setting": "rat, plasma, po, i.v. ABT", "value": "188 ± 146", "unit": "ng·h/mL"}, {"measurement": "AUC(0-inf)", "setting": "rat, plasma, po, p.o. ABT", "value": "876 ± 183", "unit": "ng·h/mL"}, {"measurement": "MRT last", "setting": "rat, plasma, po, i.v. ABT", "value": "8.37 ± 3.67", "unit": "h"}, {"measurement": "MRT last", "setting": "rat, plasma, po, p.o. ABT", "value": "5.51 ± 1.25", "unit": "h"}, {"measurement": "Cmax", "setting": "[2]", "value": "41.8 ± 42", "unit": "ng/mL"}, {"measurement": "Tmax", "setting": "[2]", "value": "0.87 ± 0.68", "unit": "h"}, {"measurement": "AUC(0-t)", "setting": "[3]", "value": "868 ± 185", "unit": "ng·h/mL"}, {"measurement": "Cmax", "setting": "[3]", "value": "176 ± 88.5", "unit": "ng/mL"}, {"measurement": "Tmax", "setting": "[3]", "value": "1.4 ± 1.32", "unit": "h"}, {"measurement": "bioavailability", "setting": "[3]", "value": 69.7, "unit": "%"}, {"measurement": "E g (gut extraction)", "setting": "ABT i.v.", "value": 75, "unit": "%"}, {"measurement": "E h (hepatic extraction)", "setting": "ABT i.v.", "value": 20, "unit": "%"}, {"measurement": "F g", "setting": "ABT i.v.", "value": 25, "unit": "%"}, {"measurement": "F h", "setting": "ABT i.v.", "value": 80, "unit": "%"}, {"measurement": "F p.o.", "setting": "ABT i.v.", "value": "~20", "unit": "%"}, {"measurement": "E g (gut extraction)", "setting": "ABT p.o.", "value": 16, "unit": "%"}, {"measurement": "E h (hepatic extraction)", "setting": "ABT p.o.", "value": 17, "unit": "%"}, {"measurement": "F g", "setting": "ABT p.o.", "value": 84, "unit": "%"}, {"measurement": "F h", "setting": "ABT p.o.", "value": 83, "unit": "%"}, {"measurement": "F p.o.", "setting": "ABT p.o.", "value": "~70", "unit": "%"}, {"measurement": "reduction of systemic clearance", "setting": "ABT pretreatment through i.v. injection", "value": "about 75%"}, {"measurement": "reduction of systemic clearance", "setting": "ABT pretreatment through oral gavage", "value": "~80", "unit": "%"}, {"measurement": "E g (gut extraction)", "setting": "No ABT", "value": 65, "unit": "%"}, {"measurement": "E h (hepatic extraction)", "setting": "No ABT", "value": 83, "unit": "%"}, {"measurement": "F g", "setting": "No ABT", "value": 35, "unit": "%"}, {"measurement": "F h", "setting": "No ABT", "value": 17, "unit": "%"}, {"measurement": "F p.o.", "setting": "No ABT", "value": 6, "unit": "%"}]}]}
